These results are taken from paper PMC8312988 (Medicinal chemistry research : an international journal for …, 2015).

One series deals with HIV-1. The format is cell-based. Particulars: for pEC50: read-out: Anti-HIV-1 activity in PBM cells EC50; for EC90: read-out: Anti-HIV-1 activity in PBM cells EC90.
In a further series the test system is PBM cells. Put plainly: Cytotoxicity assay, PBM cells. It is filed as cell-based, Human. Particulars: for pIC50: read-out: Cytotoxicity IC50 PBM, 5-day incubation.
The test system of another series is Vero cells. Put plainly: Cytotoxicity assay, Vero cells. Particulars: read-out: Cytotoxicity IC50 Vero; Vero cells, 5-day incubation. It is filed as cell-based, African green monkey.
A further series deals with CEM cells. Particulars: for pIC50: read-out: Cytotoxicity IC50 CEM, 5-day incubation.
The nature of series [1]: Cytotoxicity assay, PBM cells. It is filed as cell-based, Human. Particulars: human.
The nature of series [2]: Cytotoxicity assay, Vero cells. The format is cell-based, African green monkey. Particulars: African green monkey, Vero cells (kidney).
The next series can be described thus: in vitro. Particulars: human, CEM cells (lymphoblastic cell line).
Another series deals with PBM, CEM and Vero cells. Briefly: Cytotoxicity across all cell lines used. It is filed as cell-based.

Molecules are shown by their SMILES. pEC50, pIC50: −log10 of the molar value.

`O=C(CN1C(=O)c2ccccc2S1(=O)=O)c1cccc(Cl)c1` [Compound 1, N-3′-Chlorophenacylsaccharine]: in the series with HIV-1, the negative logarithm of the EC50 (pEC50) is less than 4.00. Besides, the EC90 in the series on HIV-1 is more than 100 µM. Moreover, the pIC50 in the series with PBM cells was less than 4.00; with Vero cells, 4.26; in the series with CEM cells, less than 4.00.
`O=C(C1=C(O)c2ccccc2S(=O)(=O)N1)c1cccc(Cl)c1` [Compound 2, (3-chlorophenyl)(4-hydroxy-1,1-dioxido-2H-benzo[e] [1,2]thiazin-3-yl)methanone]: the concentration for half-maximal inhibition (IC50) at 5 day is more than 100 µM in series [1], more than 100 µM in series [2] and 26.7 µM in the series “in vitro”.
As to `COC(=O)CN1C(C(=O)c2cccc(Cl)c2)=C(O)c2ccccc2S1(=O)=O` [Compound 3, Methyl 2-[3-(3-chlorobenzoyl)-4-hydroxy-1,1-dioxido-2H-benzo[e][1,2]thiazin-2-yl]acetate], the results for the IC50 at 5 day (in series [1]; in series [2]; in “in vitro”) were 57.3 µM, 40.6 µM and 22.4 µM, respectively.
As to `NNC(=O)CN1c2c(n[nH]c2-c2cccc(Cl)c2)-c2ccccc2S1(=O)=O` [Compound 4], in the series with HIV-1, the “Anti-HIV-1 activity (in words)” value is “inactive”, the pEC50 was less than 4.00 and the EC90 is more than 100 µM. Besides, in the series on PBM cells, the pIC50 was less than 4.00. Besides, the pIC50 in the series with Vero cells is less than 4.00. In addition, the “Toxicity to all the cell lines used (in words)” value in the series with PBM, CEM and Vero cells is reported as “nontoxic”. Besides, the pIC50 with CEM cells is less than 4.00.
In the case of `O=C(CN1c2c(n[nH]c2-c2cccc(Cl)c2)-c2ccccc2S1(=O)=O)NN=Cc1ccc(F)cc1` [Compound 5a, 2-[3-(3-Chlorophenyl)-5,5-dioxidobenzo[e]pyrazolo[4,3-c] [1,2]thiazin-4(2H)-yl]-N′-(4-fluorobenzylidene)acetohydrazide], the figures for the IC50 at 5 day (in series [1]; in series [2]; in the series “in vitro”) were 20 µM, 45.7 µM and 31.6 µM, respectively.
On the same counts, the results for `O=C(CN1c2c(n[nH]c2-c2cccc(Cl)c2)-c2ccccc2S1(=O)=O)NN=Cc1cccc(Cl)c1` [Compound 5b, N′-(3-Chlorobenzylidene)-2-[3-(3-chlorophenyl)-5,5-dioxidobenzo[e]pyrazolo[4,3-c][1,2]thiazin-4(2H)-yl]acetohydrazide] are 36.3 µM, 16.4 µM and 31.6 µM.
As to `O=C(CN1c2c(n[nH]c2-c2cccc(Cl)c2)-c2ccccc2S1(=O)=O)NN=Cc1ccc(Cl)cc1` [Compound 5c, N′-(4-Chlorobenzylidene)-2-[3-(3-chlorophenyl)-5,5-dioxidobenzo[e]pyrazolo[4,3-c][1,2]thiazin-4(2H)-yl]acetohydrazide], the pEC50 in the series with HIV-1 was 5.40. Moreover, the IC50 at 5 day in series [1] turned out to be 12.8 µM; in series [2], 19.2 µM; in the series “in vitro”, 2.5 µM. In addition, the “Toxicity to all the cell lines used (in words)” value in the series with PBM, CEM and Vero cells is “highly toxic”.
Take `O=C(CN1c2c(n[nH]c2-c2cccc(Cl)c2)-c2ccccc2S1(=O)=O)NN=Cc1cccc(Br)c1` [Compound 5d, N′-(3-Bromobenzylidene)-2-[3-(3-chlorophenyl)-5,5-dioxidobenzo[e]pyrazolo[4,3-c][1,2]thiazin-4(2H)-yl]acetohydrazide]: the results for the IC50 at 5 day (in series [1]; in series [2]; in the series “in vitro”) were 22.9 µM, more than 100 µM and 12.9 µM, respectively.
`O=C(CN1c2c(n[nH]c2-c2cccc(Cl)c2)-c2ccccc2S1(=O)=O)NN=Cc1ccc(Br)cc1` [Compound 5e, N′-(4-Bromobenzylidene)-2-(3-(3-chlorophenyl)-5,5-dioxidobenzo[e]pyrazolo[4,3-c][1,2]thiazin-4(2H)-yl)acetohydrazide]: the results for the IC50 at 5 day (in series [1]; in series [2]; in the series “in vitro”) were 66.7 µM, 46.5 µM and 5 µM, respectively. Also, the “Toxicity in PBM cells (in words)” value with PBM cells was “not toxic”.
Consider `O=C(CN1c2c(n[nH]c2-c2cccc(Cl)c2)-c2ccccc2S1(=O)=O)NN=Cc1ccc(Cl)cc1Cl` [Compound 5f, 2-[3-(3-Chlorophenyl)-5,5-dioxidobenzo[e]pyrazolo[4,3-c] [1,2]thiazin-4(2H)-yl]-N′-(2,4-dichlorobenzylidene)acetohydrazide], for which the values for the IC50 at 5 day (in series [1]; in series [2]; in “in vitro”) were 80.7 µM, 84.8 µM and 13.8 µM, respectively. For the same compound, in the series on PBM cells, the “Toxicity in PBM cells (in words)” value is “not toxic”. In addition, the “Toxicity to CEM cell line (in words)” value with CEM cells is given as “toxic to only CEM cell line”.
The matching figures for `O=C(CN1c2c(n[nH]c2-c2cccc(Cl)c2)-c2ccccc2S1(=O)=O)NN=Cc1c(Cl)cccc1Cl` [Compound 5g, 2-[3-(3-Chlorophenyl)-5,5-dioxidobenzo[e]pyrazolo[4,3-c] [1,2]thiazin-4(2H)-yl]-N′-(2,6-dichlorobenzylidene)acetohydrazide]: 52.5 µM, 60.5 µM, 12.5 µM, “not toxic” and “toxic to only CEM cell line”.
Regarding `COc1cccc(C=NNC(=O)CN2c3c(n[nH]c3-c3cccc(Cl)c3)-c3ccccc3S2(=O)=O)c1` [Compound 5h, 2-[3-(3-Chlorophenyl)-5,5-dioxidobenzo[e]pyrazolo[4,3-c] [1,2]thiazin-4(2H)-yl]-N′-(3-methoxybenzylidene)acetohydrazide], the IC50 at 5 day worked out at 19 µM in series [1], 22.3 µM in series [2] and 31.6 µM in “in vitro”.
In the case of `COc1ccc(C=NNC(=O)CN2c3c(n[nH]c3-c3cccc(Cl)c3)-c3ccccc3S2(=O)=O)c(OC)c1OC` [Compound 5i, 2-[3-(3-Chlorophenyl)-5,5-dioxidobenzo[e]pyrazolo[4,3-c] [1,2]thiazin-4(2H)-yl]-N′-(2,3,4-trimethoxybenzylidene) acetohydrazide], in the series with HIV-1, the pEC50 is 5.38. Also, the half-maximal inhibitory concentration (IC50) at 5 day in series [1] was 21.8 µM; in series [2] it was 29 µM; in the series “in vitro”, 31.6 µM.
Consider `COc1cc(C=NNC(=O)CN2c3c(n[nH]c3-c3cccc(Cl)c3)-c3ccccc3S2(=O)=O)cc(OC)c1OC` [Compound 5j, 2-[3-(3-chlorophenyl)-5,5-dioxidobenzo[e]pyrazolo[4,3-c] [1,2]thiazin-4(2H)-yl]-N′-(3,4,5-trimethoxybenzylidene) acetohydrazide], for which the IC50 at 5 day was 11 µM in series [1], 14.3 µM in series [2] and 31.6 µM in “in vitro”.
Turning to `O=C(CN1c2c(n[nH]c2-c2cccc(Cl)c2)-c2ccccc2S1(=O)=O)NN=Cc1ccccc1[N+](=O)[O-]` [Compound 5k, 2-[3-(3-Chlorophenyl)-5,5-dioxidobenzo[e]pyrazolo[4,3-c] [1,2]thiazin-4(2H)-yl]-N′-(2-nitrobenzylidene)acetohydrazide], in the series with HIV-1, the “Anti-HIV-1 activity (in words)” value was “no inhibition”. Besides, the IC50 at 5 day (in series [1]; in series [2]; in the series “in vitro”) was more than 100 µM in each case. For the same compound, the “Toxicity to all the cell lines used (in words)” value in the series with PBM, CEM and Vero cells is recorded as “no toxicity”.
Take `O=C(CN1c2c(n[nH]c2-c2cccc(Cl)c2)-c2ccccc2S1(=O)=O)NN=Cc1cccc([N+](=O)[O-])c1` [Compound 5l, 2-[3-(3-Chlorophenyl)-5,5-dioxidobenzo[e]pyrazolo[4,3-c] [1,2]thiazin-4(2H)-yl]-N′-(3-nitrobenzylidene)acetohydrazide]: the IC50 at 5 day in series [1] was more than 100 µM; in series [2], 27 µM; in “in vitro”, 47.3 µM. For the same compound, the “Toxicity in PBM cells (in words)” value in the series on PBM cells is on record as “not toxic”.
As for `O=C(CN1c2c(n[nH]c2-c2cccc(Cl)c2)-c2ccccc2S1(=O)=O)NN=Cc1ccc([N+](=O)[O-])cc1` [Compound 5m, 2-[3-(3-Chlorophenyl)-5,5-dioxidobenzo[e]pyrazolo[4,3-c] [1,2]thiazin-4(2H)-yl]-N′-[4-nitrobenzylidene]acetohydrazide], the IC50 at 5 day in series [1] worked out at 16.7 µM; in series [2], 21.2 µM; in “in vitro”, 2.8 µM.
With `O=C(CN1c2c(n[nH]c2-c2cccc(Cl)c2)-c2ccccc2S1(=O)=O)NN=Cc1ccc(C(=O)O)cc1` [Compound 5n, 4-[(2-(2-(3-(3-Chlorophenyl)-5,5-dioxidobenzo[e]pyrazolo [4,3-c][1,2]thiazin-4(2H)-yl)acetyl)hydrazono)methyl]benzoic acid], the half-inhibitory concentration (IC50) at 5 day in series [1] worked out at 17.2 µM; in series [2], 18.2 µM; in “in vitro” it was 13.4 µM.
The matching figures for `CN(C)c1ccc(C=NNC(=O)CN2c3c(n[nH]c3-c3cccc(Cl)c3)-c3ccccc3S2(=O)=O)cc1` [Compound 5o, 2-[3-(3-Chlorophenyl)-5,5-dioxidobenzo[e]pyrazolo[4,3-c] [1,2]thiazin-4(2H)-yl]-N′-[4-(dimethylamino)benzylidene] acetohydrazide]: 23.7 µM, 10.4 µM and 2.5 µM.
